Measured values taken from patent US20050096360A1, “Inhibitors of semicarbazide-sensitive amine oxidase (SSAO) and VAP-1 mediated adhesion useful for treatment of diseases” (priority 2003, published 2005).
Structures can show the parent of a compound that is named as a salt.

How the values were obtained:
[1] = system: collagen-induced arthritis (CIA) in mice; assay: Antibody-mediated collagen-induced arthritis in mice; assay type: in vivo; details: 20 mg/kg i.p. twice daily
Method: The murine CIA model used in this study is called antibody-mediated CIA, and can be induced by i.v. injection of a combination of different anti-type II collagen monoclonal antibodies (Terato K., et al. (1995). Autoimmunity. 22:137).
In this example, arthrogen-collagen-induced arthritis antibody kits were purchased from Chemicon International (Temecula, Calif.) and arthritis was induced using the manufacturer's protocol. Mice were injected i.v. with a cocktail of 4 anti-collagen Type II monoclonal antibodies (0.5 mg each) on day 0, followed by i.p. injection of 25 μg lipopolysaccharide (LPS) on day 2. Mice develop swollen wrists, ankles, and digits 3-4 days after LPS injection, with disease incidence of 90% by day 7. Severity of arthritis in each limb was scored for 12 days as follows: 0=normal; 1=mild redness, slight swelling of ankle or wrist; 2=moderate redness and swelling of ankle or wrist; 3=severe redness and swelling of some digits, ankle and paw; 4=maximally inflamed limb. Animals were divided in 3 groups of 6 animals: vehicle, methotrexate (MTX)-treated, and compound-treated. Animals in the vehicle group were injected i.p. with phosphate buffer saline (PBS), twice daily for 12 days (starting on day 0). MTX (3 mg/kg) was administered i.p. starting on day 0 and continuing every other day (Mon., Weds., Fri.) for the duration of the experiment.
For each of the two sets of data (arthritis score and paw swelling), a repeated measure analysis was performed to assess the treatment effect.
The relative RT-PCR approach was used. To perform this experiment, a kit from Ambion (USA) was used that employs 18S ribosomal RNA (rRNA) as an internal control. In addition to the rRNA primers, the kit also provides specific primers for the amplification of the different cytokines to be analyzed. […] At the end of the study, animals were euthanized and the right hind paws were extracted and frozen. Total RNA was isolated using 1 ml of Trizol reagent (Invitrogen, USA) per 50-100 mg tissue according to the manufacturer's instructions. […]

[2] = system: relapsing EAE in SJL/J mice; assay: Chronic relapsing EAE (model of chronic multiple sclerosis); assay type: in vivo; details: 10 mg/kg i.p. bid for 53 days
Method: An analysis of the use of VAP-1/SSAO inhibitors to treat inflammatory diseases of the CNS is performed through the use of a relapsing experimental autoimmune encephalomyelitis model (EAE) in SJL/J mice.
To examine the role of VAP-1 as a major regulator of lymphocyte recruitment to the CNS, VAP-1/SSAO inhibitor was evaluated in a chronic relapsing EAE model.
Then animals were monitored for signs of paralysis according to a 0-5 scale of scoring system as follows: • 0.5 partial tail weakness • 1 limp tail or waddling gait with tail tonicity; • 1.5 waddling gait with partial tail weakness • 2 waddling gait with limp tail (ataxia); • 2.5 ataxia with partial limb paralysis; • 3 full paralysis of one limb; • 3.5 full paralysis of one limb with partial paralysis of second limb; • 4 full paralysis of two limbs; • 4.5 moribund; • 5 death.
The results are expressed as mean clinical score (FIG. 9A), % incidence (number of mice with any paralysis/10 mice) (FIG. 9B), % mice with chronic disease (mice with at least one relapse) (FIG. 9C), and cumulative total number of relapses (FIG. 9D).

[3] = system: carrageenan-induced paw edema in Sprague Dawley rats; assay: Carrageenan-induced rat paw edema; assay type: in vivo; details: for paw swelling: 100 mg/kg i.p. 15 minutes prior to carrageenan, 60, 120, 180 min, p<0.05
Method: Female Sprague Dawley rats were used and compounds of the invention were injected i.p. at 100 mg/kg 15 minutes prior to carrageenan exposure. The control group was injected with an equal volume of vehicle (PBS). Edema in the paws was induced as previously described by injecting 50 μl of a 0.5% solution of carrageenan (Type IV Lambda, Sigma) in saline with a 27-G needle s.c. in the right foot pat. (See Whiteley P. E. and Dalrymple S. A. (1998) Models of inflammation: carrageenan-induced paw edema in the rat, in Current Protocols in Pharmacology. Enna S J, Williams M, Ferkany J W, Kenaki T, Porsolt R E and Sullivan J P, eds., pp 5.4.1-5.4.3, John Wiley & Sons, New York) The size of the tested foot of each animal was measured volumetrically, before induction of edema, and at 60, 120, and 180 min after carrageenan induction.
Briefly, SSAO inhibitors (30 mg/kg), indomethacin (3 mg/kg) and PBS were administered orally to rats 1 hour after carrageenan injections.
To investigate further the role of SSAO inhibition in the inflammatory response, studies were carried out to assess the effect of SSAO inhibition on prostaglandin E2 (PGE2) levels. Animals were divided into four therapeutic groups of eight rats each. […] The fourth group received 3 mg/kg of dexamethasone, i.p. 1 hour before paw inflammation. Three hours after carrageenan injection, rats were asphyxiated with CO2 and their hind paws removed. The paws were lacerated with a scalpel, suspended off the bottom of a polypropylene 1.5 ml tube with a micropipette tip and centrifuged to express the inflammatory fluid. The volume collected from each paw was determined and the fluid was analyzed by ELISA for PGE2 production using a commercial kit (R&D Systems, Minneapolis, Minn.) according to the manufacturer's instructions. […] Data were analyzed with GraphPad Prism software (San Diego, Calif.) by Dunnett's test following analysis of variance.

[4] = system: oxazolone-induced colitis in SJL/J mice
Method: Oxazolone colitis is induced as described (Fuss I. J. et al. (2002) J. Immunol. 168: 900). Briefly, mice are pre-sensitized by skin epicutaneous application of 3% oxazolone (4-ethoxymethylene-2-phenyl-2oxazolin-5-one, Sigma) in 100% EtOH (150 μl) on day 0, followed by intrarectal administration of 1% oxazolone in 50% EtOH (100 μl) to anesthetized SJL/J male mice on day 5 through a 3.5 F catheter inserted 4 cm proximal to the anal verge. Mice are divided in three treatment groups and injected i.p. twice a day with: PBS and a compound of the invention. Injections are initiated at day 0 and are continued through day 7 or the end of the study.
A study was carried out using the protocol in Example 20 for oxazolone-induced colitis. Injections were initiated at day 0 and were continued through the end of the study. Disease progression was evaluated for 12 days (6 days after intrarectal administration) by monitoring survival rates and body weight, as well as by macroscopic evidence of colitis (i.e. rectal prolapse, colon size, colon weight). (2-phenylallyl)hydrazine was administered at 10 mg/kg, i.p. twice a day, starting on the day of skin pre-sensitization (day 0). […] Kaplan-Meyer survival curves and unpaired t tests were calculated using GraphPad Prism software (San Diego, Calif.).
Thus, animals from a similar study were sacrificed seven days after initial sensitization and their colons removed and fixed in […]. Tissue processing and analysis were performed blindly at a contract laboratory (Pathology Associates, Frederick, Md.). Briefly, after paraffin embedding 5 μm sections were cut and stained with hematoxylin and eosin. Three cross sections were taken from each animal at 1 cm (section 1), 3 cm (section 2), and 6 cm (section 3) from the anus. The degrees of ulceration, inflammation (in mucosa, submucosa, serosa, and outer muscular layers) and epithelial injury (including mucosal and submucosal abscess, submucosal fibrosis, glandular distortion and mucosal and submucosal edema/hemorrhage), were graded semiquantitatively as 0—absent; 1—minimal; 2—mild; 3—moderate; 4—marked. […] Kaplan-Meyer survival curves were calculated using GraphPad Prism software (San Diego, Calif.).

[5] = system: LPS-induced endotoxemia in C57B1/6J female mice; assay: LPS-induced endotoxemia and LPS/D-galactosamine shock; assay type: in vivo; details: for survival, first 14 hours: LPS 2 mg/kg + D-galactosamine 300 mg/kg i.p., PBS 40%
Method: Eight female mice per group received i.p. injections of 5 mg/kg LPS. […] Dexamethasone (3 mg/kg) was administered i.p. at the same time. Blood was collected 1, 2, 4, and 8 hours after LPS injection and circulating TNF-α and IL-6 levels were measured by ELISA (R&D Systems). Asterisk * indicates p<0.01.
Survival data for the first 14 hours is presented.
In sepsis exposure of endothelial cells of all organs to elevated levels of LPS and inflammatory cytokines leads to upregulation of adhesion molecules and chemokines, which results in an increase in the tethering, rolling and transmigration of leukocytes (Pawlinski R. et al. (2004) Blood 103:1342). LPS-induced endotoxemia is a well-characterized model of systemic inflammation and thus can be used to investigate the putative role of SSAO inhibition in these inflammatory mechanisms. Sepsis was induced in C57B1/6J female mice by i.p. administration of 5 mg/kg of LPS. […] Dexamethasone was administered i.p, at a concentration of 3 mg/kg 1 hr prior to disease induction. Blood was drawn from the retroorbital plexus of anesthetized animals and sera was collected and frozen until time of cytokine measurements. IL-1β, TNF-α, and IL-6 concentrations were determined by ELISA using commercial kits (R&D Systems, Minneapolis, Minn.) according to the manufacturer's instructions. […] Data were analyzed with GraphPad Prism software (San Diego, Calif.) by Dunnett's test following analysis of variance. […] 2 mg/kg LPS together with 300 mg/kg D-galactosamine (GalN, Sigma), both dissolved in PBS, were administered to mice by i.p. injection. At the indicated time points animals from the different therapeutic groups received 200 μl of vehicle (PBS) or 30 mg/kg (2-phenylallyl)hydrazine by oral administration.

[6] = 10 mg/kg i.p. twice a day from day 0, vs vehicle
[7] = day 7, 20 mg/kg/day from day 0, section 2
[8] = 50 mg/kg orally 60 min prior to 5 mg/kg LPS i.p.

| SMILES | final arthritis score ([1]; day 0-11, p=0.0046 vs PBS) | paw swelling ([1]; day 0-11, p=0.0060 vs PBS) | levels of TNFα mRNA in the paws (relative RT-PCR, TNFα:18S rRNA) ([1]; right hind paws at end of study) | cumulative number of relapses ([2]; p<0.0001 vs buffer) | incidence of chronic disease (mice with at least one relapse) ([2]; p<0.0001 vs buffer) | overall clinical severity ([2]; p<0.005 vs buffer) | PGE2 production in paw exudate ([3]; 50 mg/kg oral 1 hour prior to carrageenan, 3 hours after injection, equivalent to dexamethasone) | paw volume ([3]; 50 mg/kg oral 1 hour prior to carrageenan, FIG. 11A) | paw swelling [3] | body weight loss [4, 6] | survival rates [4, 6] | inflammatory index (histology) [4, 7] | ulceration index (histology) [4, 7] | levels of circulatory IL-6 [5, 8] | levels of circulatory TNF-α [5, 8] | survival, first 14 hours ([5]; 30 mg/kg oral at 0 and 8 hours (2×)) [%] | survival, first 14 hours ([5]; 30 mg/kg oral once (1×)) [%] |
| --- | --- | --- | --- | --- | --- | --- | --- | --- | --- | --- | --- | --- | --- | --- | --- | --- | --- |
| C=C(CNN)c1ccccc1 [Example 2, Hydrochloride] | clearly reduced | clearly reduced | able to reduce | statistically significant reduction | significant lower | statistically significant reduction | significantly reduce | reduces | clearly and significantly reduced | significantly improved | significantly improved | significant effect | significant effect | significantly reduced | significantly reduced | 80 | 60 |
| C=C(CNN)c1ccc(F)cc1.Cl [Example 8, N-[2-(4′-fluorophenyl)-allyl]-hydrazine Hydrochloride] | – | – | – | – | – | – | – | – | clearly and significantly reduced | – | – | – | – | – | – | – | – |
